Assay results reported in PMC7311426, “An amphipathic peptide with antibiotic activity against multidrug-resistant Gram-negative bacteria” (Nature Communications, 2020).
Converted amounts (≈) assume the structure as drawn. Like-named read-outs stand apart in the source and are kept apart here.

How the values were obtained:
E. coli K12 MG1655 = experiment: ATP release, BacTiter-Glo luminescence; type: cell-based, Escherichia coli; conditions: E. coli K12, X = xMIC, 24 Y values
Method: ATP was measured using the BacTiter-Glo^TM Microbial Cell Viability Assay (Promega) following the manufacturer’s instructions. The assay was performed for three biological replicates at 37 °C, with luminescence recorded using a Tecan Infinite M1000 Pro plate reader. The fold reduction of ATP was calculated as: Fold reduction ATP = 1 − (Ltreat − Lmedia/Lcontrol − Lmedia); where Ltreat is the luminescence of treated cells, Lmedia is the luminescence of CAMHB without cells, and Lcontrol is the luminescence of untreated cells. Resultant graphs show mean (n = 7) and std error for each data point, prepared in Prism 8. DMSO was included as a control as piperacillin was solubilized in DMSO, with final assay concentration of 2.5%.

E. coli = experiment: microbe, parasite or virus in culture; conditions: Escherichia coli, ATCC700926|MG1655, read-out: BMD MIC, E. coli ATCC 700926 K12 (MG1655); CAMHB; mode of 6 replicates
In short: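 MICs were scored by eye after 18-20 h static incubation at 37 °C, with bacteria at 5 × 10^5 CFU mL^−1 in MHB. Peptides were serially diluted 2-fold over 12 points, top 128 or 64 μg mL^−1. CAMHB (CLSI) and 1% agarose-MHB variants were also run, at least six replicates.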

C. albicans = experiment: microbe, parasite or virus in culture; conditions: for BMD MIC: C. albicans ATCC 90028 NCCLS 11, mode of 6 replicates; for MIC: Candida albicans
C. neoformans = experiment: microbe, parasite or virus in culture; conditions: mode of 6 replicates; for BMD MIC: C. neoformans ATCC 208821 H99; for MIC: Cryptococcus neoformans, ATCC208821, read-out: BMD MIC, C. neoformans ATCC 208821 H99
[1] = fit headed 10 min, four-parameter variable slope
[2] = fit headed 30 min, four-parameter variable slope
[3] = fit headed 60 min, four-parameter variable slope
[4] = YPD, 24 h 35 °C + resazurin 3 h

CCN1CCN(C(=O)N[C@@H](C(=O)N[C@@H]2C(=O)N3[C@@H]2SC(C)(C)[C@@H]3C(=O)O)c2ccccc2)C(=O)C1=O [piperacillin]
ATP release, nonlinear fit: HillSlope (E. coli K12 MG1655; [1]): ~ -467.9
ATP release, nonlinear fit: IC50 (E. coli K12 MG1655; [1]): ~ 31.42 xMIC
ATP release, nonlinear fit: LogIC50 (E. coli K12 MG1655; [1]): ~ 1.497
ATP release, nonlinear fit: Top (E. coli K12 MG1655; [1]): 0.08165
ATP release, nonlinear fit: Bottom (E. coli K12 MG1655; fit headed 10 min, log(inhibitor) vs. response, variable slope (four parameters)): 0.04818
ATP release, nonlinear fit: Bottom (E. coli K12 MG1655; [2]): ~ 0.04736
ATP release, nonlinear fit: IC50 (E. coli K12 MG1655; [2]): ~ 0.000 xMIC
ATP release, nonlinear fit: Top (E. coli K12 MG1655; [2]): 0.07515
ATP release, nonlinear fit: Bottom (E. coli K12 MG1655; [3]): 0.00107
ATP release, nonlinear fit: HillSlope (E. coli K12 MG1655; [3]): ~ 0.6194
ATP release, nonlinear fit: LogIC50 (E. coli K12 MG1655; [3]): ~ 16.74
ATP release, nonlinear fit: Top (E. coli K12 MG1655; [3]): 0.1665
MIC (E. coli): 2 µg/mL (≈ 3.86 µM)

C[C@@H]1[C@H](O)[C@@H](C)/C=C/C=C/C=C/C=C/C=C/C=C/C=C/[C@H](O[C@@H]2O[C@H](C)[C@@H](O)[C@H](N)[C@@H]2O)C[C@@H]2O[C@](O)(C[C@@H](O)C[C@@H](O)[C@H](O)CC[C@@H](O)C[C@@H](O)CC(=O)O[C@H]1C)C[C@H](O)[C@H]2C(=O)O [Amphroterocin B, reference compound]
BMD MIC (C. albicans; RPMI): 0.5 µg/mL
BMD MIC (C. albicans; YPD, 24 h 35 °C): 1 µg/mL
BMD MIC (C. neoformans; RPMI): 0.5 µg/mL
BMD MIC (C. neoformans; [4]): 0.5 µg/mL

OC(Cn1cncn1)(Cn1cncn1)c1ccc(F)cc1F [Fluconazole, reference compound]
MIC (C. albicans; ATCC90028, 24 h, read-out: BMD MIC): 1 µg/mL (≈ 3.27 µM)
MIC (C. albicans; ATCC90028, read-out: BMD MIC): 0.5 µg/mL (≈ 1.63 µM)
MIC (C. neoformans; RPMI): 2 µg/mL (≈ 6.53 µM)
MIC (C. neoformans; [4]): 8 µg/mL
